From ChEMBL document CHEMBL1773037, “Evaluation of superior BACE1 cleavage sequences containing unnatural amino acids” (Bioorg Med Chem, 2011)
Starred links: 1 amine or outer side, 2 acyl side, 3 side chain; linkers in the order of their positions; H or OH if unused. Non-standard residues stand in square brackets, D forms with d. Residues, ends and D or L forms follow the SMILES beside them. X1 = O=C(O)[C@@H]1Cc2ccccc2CN1[C@H](N[*:1])C(=O)[*:2]; 2Thi = N[C@@H](Cc1cccs1)C(=O)O; Cha = N[C@@H](CC1CCCCC1)C(=O)O; Phg = N[C@H](C(=O)O)c1ccccc1; Tle = CC(C)(C)[C@H](N)C(=O)O; Nva = CCC[C@H](N)C(=O)O; Abu = CC[C@H](N)C(=O)O

target: Beta-secretase 1 (Homo sapiens) (UniProt P56817); assay: Activity of recombinant BACE assessed as retention time of substrate by HPLC method
Sequence (P56817 whole entry): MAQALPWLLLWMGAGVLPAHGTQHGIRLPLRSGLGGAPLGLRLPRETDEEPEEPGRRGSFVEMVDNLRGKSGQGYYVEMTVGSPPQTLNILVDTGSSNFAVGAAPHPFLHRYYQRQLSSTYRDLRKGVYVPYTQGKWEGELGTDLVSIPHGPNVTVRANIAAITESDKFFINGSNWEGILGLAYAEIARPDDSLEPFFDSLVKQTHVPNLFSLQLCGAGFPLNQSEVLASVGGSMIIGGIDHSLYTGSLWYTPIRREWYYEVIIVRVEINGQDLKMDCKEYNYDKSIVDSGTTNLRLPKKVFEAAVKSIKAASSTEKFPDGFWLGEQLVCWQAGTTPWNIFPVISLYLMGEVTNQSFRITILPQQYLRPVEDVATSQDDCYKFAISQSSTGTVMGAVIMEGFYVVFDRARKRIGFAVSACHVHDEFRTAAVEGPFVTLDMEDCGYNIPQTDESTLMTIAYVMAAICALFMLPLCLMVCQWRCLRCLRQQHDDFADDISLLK

SMILES | retention time [h]
CC[C@H](C)[C@H](N)C(=O)N[C@@H](CO)C(=O)N[C@@H](CCC(=O)O)C(=O)N[C@H](C(=O)N[C@@H](CC(N)=O)C(=O)N[C@@H](CC(C)C)C(=O)N[C@@H](CC(=O)O)C(=O)N[C@@H](C)C(=O)N[C@@H](CCC(=O)O)C(=O)N[C@@H](Cc1ccccc1)C(=O)N[C@@H](CCCNC(=N)N)C(=O)N[C@@H](Cc1cnc[nH]1)C(N)=O)c1ccccc1 (H-ISE[Phg]NLDAEFRH-NH2) | 0.514
CC[C@H](C)[C@H](N)C(=O)N[C@@H](CO)C(=O)N[C@@H](CCC(=O)O)C(=O)N[C@H](C(=O)N[C@@H](CC(N)=O)C(=O)N[C@@H](CC(C)C)C(=O)N[C@@H](CC(=O)O)C(=O)N[C@@H](C)C(=O)N[C@@H](CCC(=O)O)C(=O)N[C@@H](Cc1ccccc1)C(=O)N[C@@H](CCCNC(=N)N)C(=O)N[C@@H](Cc1cnc[nH]1)C(N)=O)C(C)(C)C (H-ISE[Tle]NLDAEFRH-NH2) | 0.517
CC[C@H](C)[C@H](N)C(=O)N[C@@H](CO)C(=O)N[C@@H](CCC(N)=O)C(=O)N[C@H](C(=O)N[C@@H](CC(N)=O)C(=O)N[C@@H](CC(C)C)C(=O)N[C@@H](CC(=O)O)C(=O)N[C@@H](C)C(=O)N[C@@H](CCC(=O)O)C(=O)N[C@@H](Cc1ccccc1)C(=O)N[C@@H](CCCNC(=N)N)C(=O)N[C@@H](Cc1cnc[nH]1)C(N)=O)C(C)C (H-ISQVNLDAEFRH-NH2) | 0.469
CC[C@H](C)[C@H](N)C(=O)N[C@@H](CO)C(=O)N[C@@H](Cc1cccs1)C(=O)N[C@H](C(=O)N[C@@H](CC(N)=O)C(=O)N[C@@H](CC(C)C)C(=O)N[C@@H](CC(=O)O)C(=O)N[C@@H](C)C(=O)N[C@@H](CCC(=O)O)C(=O)N[C@@H](Cc1ccccc1)C(=O)N[C@@H](CCCNC(=N)N)C(=O)N[C@@H](Cc1cnc[nH]1)C(N)=O)C(C)C (H-IS[2Thi]VNLDAEFRH-NH2) | 0.591
CC[C@H](NC(=O)[C@H](CO)NC(=O)[C@@H](N)[C@@H](C)CC)C(=O)N[C@H](C(=O)N[C@@H](CC(N)=O)C(=O)N[C@@H](CC(C)C)C(=O)N[C@@H](CC(=O)O)C(=O)N[C@@H](C)C(=O)N[C@@H](CCC(=O)O)C(=O)N[C@@H](Cc1ccccc1)C(=O)N[C@@H](CCCNC(=N)N)C(=O)N[C@@H](Cc1cnc[nH]1)C(N)=O)C(C)C (H-IS[Abu]VNLDAEFRH-NH2) | 0.528
CC[C@H](C)[C@H](N)C(=O)N[C@@H](CO)C(=O)N[C@@H](CC1CCCCC1)C(=O)N[C@H](C(=O)N[C@@H](CC(N)=O)C(=O)N[C@@H](CC(C)C)C(=O)N[C@@H](CC(=O)O)C(=O)N[C@@H](C)C(=O)N[C@@H](CCC(=O)O)C(=O)N[C@@H](Cc1ccccc1)C(=O)N[C@@H](CCCNC(=N)N)C(=O)N[C@@H](Cc1cnc[nH]1)C(N)=O)C(C)C (H-IS[Cha]VNLDAEFRH-NH2) | 0.689
CCC[C@H](NC(=O)[C@H](CO)NC(=O)[C@@H](N)[C@@H](C)CC)C(=O)N[C@H](C(=O)N[C@@H](CC(N)=O)C(=O)N[C@@H](CC(C)C)C(=O)N[C@@H](CC(=O)O)C(=O)N[C@@H](C)C(=O)N[C@@H](CCC(=O)O)C(=O)N[C@@H](Cc1ccccc1)C(=O)N[C@@H](CCCNC(=N)N)C(=O)N[C@@H](Cc1cnc[nH]1)C(N)=O)C(C)C (H-IS[Nva]VNLDAEFRH-NH2) | 0.567

Now from value to compound:

retention time [h] | SMILES
0.599 | CC[C@H](C)[C@H](N)C(=O)N[C@@H](CO)C(=O)N[C@@H](CCC(=O)O)C(=O)N[C@H](C(=O)N[C@@H](CC(N)=O)C(=O)N[C@@H](CC(C)C)C(=O)N[C@@H](CC(=O)O)C(=O)N[C@@H](C)C(=O)N[C@@H](CCC(=O)O)C(=O)N[C@@H](Cc1ccccc1)C(=O)N[C@@H](CCCNC(=N)N)C(=O)N[C@@H](Cc1cnc[nH]1)C(N)=O)N1Cc2ccccc2C[C@H]1C(=O)O (H-ISE[X1]NLDAEFRH-NH2)
0.588 | CC[C@H](C)[C@H](N)C(=O)N[C@@H](CO)C(=O)N[C@H](C(=O)N[C@H](C(=O)N[C@@H](CC(N)=O)C(=O)N[C@@H](CC(C)C)C(=O)N[C@@H](CC(=O)O)C(=O)N[C@@H](C)C(=O)N[C@@H](CCC(=O)O)C(=O)N[C@@H](Cc1ccccc1)C(=O)N[C@@H](CCCNC(=N)N)C(=O)N[C@@H](Cc1cnc[nH]1)C(N)=O)C(C)C)C(C)(C)C (H-IS[Tle]VNLDAEFRH-NH2)
0.628 | CC[C@H](C)[C@H](N)C(=O)N[C@@H](CO)C(=O)N[C@H](C(=O)N[C@H](C(=O)N[C@@H](CC(N)=O)C(=O)N[C@@H](CC(C)C)C(=O)N[C@@H](CC(=O)O)C(=O)N[C@@H](C)C(=O)N[C@@H](CCC(=O)O)C(=O)N[C@@H](Cc1ccccc1)C(=O)N[C@@H](CCCNC(=N)N)C(=O)N[C@@H](Cc1cnc[nH]1)C(N)=O)C(C)C)N1Cc2ccccc2C[C@H]1C(=O)O (H-IS[X1]VNLDAEFRH-NH2)
0.269 | CCC[C@H](N)C(=O)N[C@@H](C)C(=O)N[C@@H](CCC(=O)O)C(=O)N[C@@H](Cc1ccccc1)C(=O)N[C@@H](CCCNC(=N)N)C(=O)N[C@@H](Cc1cnc[nH]1)C(N)=O (H-[Nva]AEFRH-NH2)
